Assay results taken from patent US20260248787A9, “MEDICAMENT FOR TREATING CANCER COMPRISING OPTICALLY ACTIVE AZABICYCLO RING DERIVATIVE” (Sumitomo Pharma Co., Ltd., priority 2023, published 2026).

Experiment: Phase 1/2 first-in-human clinical study, safety evaluation (DLT, TEAE, SAE)
Protocol: Arm A: Patients without azole antifungal treatment within 7 days (or 21 days for isavuconazole) of first dose of the present compound
Arm B: Patients receiving posaconazole, voriconazole, or fluconazole antifungal prophylaxis at enrollment
The safety of each dose level also was evaluated by the SRC, which was comprised of all investigators participating in the study and selected Sponsor study team members. The dose recommended by the BLRM method was treated as guidance and was integrated with a clinical assessment of toxicity information and review of other available data, including safety, PK, pharmacodynamic, and laboratory data.
When the Dose Limiting Toxicity (DLT) evaluation for each cohort was completed, the SRC determined a next dose level based on the DLT and other available data, including safety, PK, pharmacodynamic, and laboratory data with reference to the Bayesian Logistic Regression Model (BLRM) recommendation.
Dose escalation decisions were made after all patients in a dose level cohort have at least completed Cycle 1. All available data were presented along with the BLRM predictions for toxicity probabilities at the potential next dose levels. The SRC then determined the dose(s) for the next cohort(s).

C=C1C[C@@H]2CC[C@H]1[C@@H](C(=O)N1CCC3(CC1)CN(c1ncncc1Oc1ccc(F)cc1C(=O)N(C(C)C)C(C)C)C3)N2 [the present compound, 5-fluoro-2-[(4-{7-[(1S,3S,4R)-5-methylidene-2-azabicyclo[2.2.2]octane-3-carbonyl]-2,7-diazaspiro[3.5]nonan-2-yl}pyrimidin-5-yl)oxy]-N,N-di(propan-2-yl)benzamide]
TEAE: Disease progression (Arm B N=10, ≥Grade 3): 2 (20.0) n (%) | TEAE: Dyspnoea (Arm B N=10, ≥Grade 3): 0 n (%) | TEAE: Epistaxis (Arm B N=10, ≥Grade 3): 0 n (%) | TEAE: Fatigue (Arm B N=10, ≥Grade 3): 0 n (%) | TEAE: Gastrointestinal disorders (Arm B N=10, ≥Grade 3): 0 n (%) | TEAE: General disorders and administration site disorders (Arm B N=10, ≥Grade 3): 2 (20.0) n (%) | TEAE: Headache (Arm B N=10, ≥Grade 3): 0 n (%) | TEAE: Hemorrhoids (Arm B N=10, ≥Grade 3): 0 n (%) | TEAE: Hypertriglyceridaemia (Arm B N=10, ≥Grade 3): 1 (10.0) n (%) | TEAE: Hypoalbuminaemia (Arm B N=10, ≥Grade 3): 0 n (%) | TEAE: Hypocalcaemia (Arm B N=10, ≥Grade 3): 1 (10.0) n (%) | TEAE: Hypomagnaesemia (Arm B N=10, ≥Grade 3): 0 n (%) | TEAE: Hyponatraemia (Arm B N=10, ≥Grade 3): 0 n (%) | TEAE: Infections and Infestations (Arm B N=10, ≥Grade 3): 4 (40.0) n (%) | TEAE: Investigations (Arm B N=10, ≥Grade 3): 1 (10.0) n (%) | TEAE: Metabolism and nutrition disorders (Arm B N=10, ≥Grade 3): 4 (40.0) n (%) | TEAE: Musculoskeletal and connective tissue disorders (Arm B N=10, ≥Grade 3): 1 (10.0) n (%) | TEAE: Nausea (Arm B N=10, ≥Grade 3): 0 n (%) | TEAE: Nervous System Disorders (Arm B N=10, ≥Grade 3): 0 n (%) | TEAE: Oedema peripheral (Arm B N=10, ≥Grade 3): 0 n (%) | TEAE: Pain in extremity (Arm B N=10, ≥Grade 3): 0 n (%) | TEAE: Platelet count decreased (Arm B N=10, ≥Grade 3): 0 n (%) | TEAE: Pneumonia (Arm B N=10, ≥Grade 3): 2 (20.0) n (%) | TEAE: Pruritus (Arm B N=10, ≥Grade 3): 0 n (%) | TEAE: Pyrexia (Arm B N=10, ≥Grade 3): 0 n (%) | TEAE: Respiratory, thoracic and mediastinal disorders (Arm B N=10, ≥Grade 3): 0 n (%) | TEAE: Sepsis (Arm B N=10, ≥Grade 3): 2 (20.0) n (%) | TEAE: Skin and subcutaneous tissue disorders (Arm B N=10, ≥Grade 3): 0 n (%) | TEAE: Stomatitis (Arm B N=10, ≥Grade 3): 0 n (%) | TEAE: Vomiting (Arm B N=10, ≥Grade 3): 0 n (%) | related TEAE: Aspartate aminotransferase increased (Arm B N=10, ≥Grade 3): 1 (10.0) n (%) | related TEAE: Blood and lymphatic system disorders (Arm B N=10, ≥Grade 3): 1 (10.0) n (%) | related TEAE: Decreased appetite (Arm B N=10, ≥Grade 3): 0 n (%) | related TEAE: Differentiation syndrome (Arm B N=10, ≥Grade 3): 0 n (%) | related TEAE: Gastrointestinal disorders (Arm B N=10, ≥Grade 3): 0 n (%) | related TEAE: General disorders and administration site conditions (Arm B N=10, ≥Grade 3): 0 n (%) | related TEAE: Headache (Arm B N=10, ≥Grade 3): 0 n (%) | related TEAE: Hypertriglyceridaemia (Arm B N=10, ≥Grade 3): 1 (10.0) n (%) | related TEAE: Hyperuricaemia (Arm B N=10, ≥Grade 3): 0 n (%) | related TEAE: Increased appetite (Arm B N=10, ≥Grade 3): 0 n (%) | related TEAE: Investigations (Arm B N=10, ≥Grade 3): 1 (10.0) n (%) | related TEAE: Leukocytosis (Arm B N=10, ≥Grade 3): 1 (10.0) n (%) | related TEAE: Metabolism and nutrition disorders (Arm B N=10, ≥Grade 3): 1 (10.0) n (%) | related TEAE: Nausea (Arm B N=10, ≥Grade 3): 0 n (%) | related TEAE: Neoplasms benign, malignant and unspecified (incl cysts and polyps) (Arm B N=10, ≥Grade 3): 0 n (%) | related TEAE: Nervous system disorders (Arm B N=10, ≥Grade 3): 0 n (%) | related TEAE: Thirst (Arm B N=10, ≥Grade 3): 0 n (%) | related TEAE: Vomiting (Arm B N=10, ≥Grade 3): 0 n (%) | TEAE: Hypokalaemia (Arm B N=10, ≥Grade 3 (not related to the present compound)): 3 (30.0)*^3 n (%) | Hematological TEAE regardless of causality: Anaemia (N=57, Any Grade): 9 (15.8%) n (%) | Hematological TEAE regardless of causality: Febrile neutropenia (N=57, Any Grade): 12 (21.1%) n (%) | Hematological TEAE regardless of causality: Leukocytosis (N=57, Any Grade): 10 (17.5%) n (%) | Hematological TEAE regardless of causality: Neutrophil count decreased (N=57, Any Grade): 7 (12.3%) n (%) | Hematological TEAE regardless of causality: Platelet count decreased (N=57, Any Grade): 9 (15.8%) n (%) | Non-hematological TEAE regardless of causality: Arthralgia (N=57, Any Grade): 6 (10.5%) n (%) | Non-hematological TEAE regardless of causality: Back pain (N=57, Any Grade): 8 (14.0%) n (%) | Non-hematological TEAE regardless of causality: COVID-19 (N=57, Any Grade): 6 (10.5%) n (%) | Non-hematological TEAE regardless of causality: Constipation (N=57, Any Grade): 11 (19.3%) n (%) | Non-hematological TEAE regardless of causality: Cough (N=57, Any Grade): 7 (12.3%) n (%) | Non-hematological TEAE regardless of causality: Decreased appetite (N=57, Any Grade): 15 (26.3%) n (%) | Non-hematological TEAE regardless of causality: Diarrhoea (N=57, Any Grade): 10 (17.5%) n (%) | Non-hematological TEAE regardless of causality: Dizziness (N=57, Any Grade): 8 (14.0%) n (%) | Non-hematological TEAE regardless of causality: Dysgeusia (N=57, Any Grade): 6 (10.5%) n (%) | Non-hematological TEAE regardless of causality: Dyspnoea (N=57, Any Grade): 13 (22.8%) n (%) | Non-hematological TEAE regardless of causality: Electrocardiogram QT prolonged (N=57, Any Grade): 7 (12.3%) n (%) | Non-hematological TEAE regardless of causality: Epistaxis (N=57, Any Grade): 10 (17.5%) n (%) | Non-hematological TEAE regardless of causality: Fatigue (N=57, Any Grade): 10 (17.5%) n (%) | Non-hematological TEAE regardless of causality: Haemorrhage intracranial (N=57, Any Grade): 6 (10.5%) n (%) | Non-hematological TEAE regardless of causality: Headache (N=57, Any Grade): 15 (26.3%) n (%) | Non-hematological TEAE regardless of causality: Hypertension (N=57, Any Grade): 8 (14.0%) n (%) | Non-hematological TEAE regardless of causality: Hypotension (N=57, Any Grade): 7 (12.3%) n (%) | Non-hematological TEAE regardless of causality: Muscular weakness (N=57, Any Grade): 9 (15.8%) n (%) | Non-hematological TEAE regardless of causality: Myalgia (N=57, Any Grade): 6 (10.5%) n (%) | Non-hematological TEAE regardless of causality: Nausea (N=57, Any Grade): 23 (40.4%) n (%) | Non-hematological TEAE regardless of causality: Oedema peripheral (N=57, Any Grade): 9 (15.8%) n (%) | Non-hematological TEAE regardless of causality: Pain in extremity (N=57, Any Grade): 8 (14.0%) n (%) | Non-hematological TEAE regardless of causality: Pneumonia (N=57, Any Grade): 10 (17.5%) n (%) | Non-hematological TEAE regardless of causality: Pyrexia (N=57, Any Grade): 9 (15.8%) n (%) | Non-hematological TEAE regardless of causality: Sepsis (N=57, Any Grade): 11 (19.3%) n (%) | Non-hematological TEAE regardless of causality: Stomatitis (N=57, Any Grade): 11 (19.3%) n (%) | Non-hematological TEAE regardless of causality: Vomiting (N=57, Any Grade): 20 (35.1%) n (%) | Non-hematological laboratory change regardless of causality: ALT increase (N=57, Any Grade): 28 (49.1%) n (%) | Non-hematological laboratory change regardless of causality: AST increase (N=57, Any Grade): 23 (40.4%) n (%) | Non-hematological laboratory change regardless of causality: Hypertriglyceridemia (N=57, Any Grade): 45 (7.9%) n (%) | Non-hematological laboratory change regardless of causality: Hypocalcemia (N=57, Any Grade): 33 (57.9%) n (%) | Non-hematological laboratory change regardless of causality: Hypokalemia (N=57, Any Grade): 34 (7.0%) n (%) | Non-hematological laboratory change regardless of causality: Hypomagnesemia (N=57, Any Grade): 26 (4.6%) n (%) | Non-hematological laboratory change regardless of causality: Hyponatremia (N=57, Any Grade): 32 (56.1%) n (%) | Non-hematological laboratory change regardless of causality: Hypophosphatemia (N=57, Any Grade): 19 (33.3%) n (%) | Treatment related adverse event: Nausea (N=57, Any Grade): 10 (17.5%) n (%) | Treatment related adverse event: Vomiting (N=57, Any Grade): 7 (12.3%) n (%) | Hematological TEAE regardless of causality: Anaemia (N=57, Grade ≥3): 8 (14.0%) n (%) | Hematological TEAE regardless of causality: Febrile neutropenia (N=57, Grade ≥3): 12 (21.1%) n (%) | Hematological TEAE regardless of causality: Leukocytosis (N=57, Grade ≥3): 4 (7.0%) n (%) | Hematological TEAE regardless of causality: Neutrophil count decreased (N=57, Grade ≥3): 6 (10.5%) n (%) | Hematological TEAE regardless of causality: Platelet count decreased (N=57, Grade ≥3): 8 (14.0%) n (%) | Non-hematological TEAE regardless of causality: Arthralgia (N=57, Grade ≥3): 1 (1.8%) n (%) | Non-hematological TEAE regardless of causality: Back pain (N=57, Grade ≥3): 1 (1.8%) n (%)
